Tested on: MV-4-11 cells
Experiment: Gene expression microarray analysis (Affymetrix PrimeView) and GSEA
Format: cell-based, human
Parameters: RFU PODN (11730768_x_at) / Fold change /veh PODN (11730768_x_at) / RFU LINC00158 (11744669_a_at) / Fold change /veh LINC00158 (11744669_a_at) / RFU DUSP10 (11751237_a_at) / Fold change /veh DUSP10 (11751237_a_at) / RFU ID3 (11757404_x_at) / Fold change /veh ID3 (11757404_x_at) / RFU PLEKHG5 (11737974_s_at) / Fold change /veh PLEKHG5 (11737974_s_at) / RFU LRRC4B (11730491_at) / Fold change /veh LRRC4B (11730491_at) / RFU GIMAP4 (11747438_a_at) / Fold change /veh GIMAP4 (11747438_a_at) / RFU KRT8 (11758183_x_at) / Fold change /veh KRT8 (11758183_x_at) / RFU CNN1 (11734310_a_at) / Fold change /veh CNN1 (11734310_a_at) / RFU VPS37D (11726825_at) / Fold change /veh VPS37D (11726825_at) / RFU C10orf10 (11716522_x_at) / Fold change /veh C10orf10 (11716522_x_at) / RFU KIR2DL2 /// KIR2DL4 /// KIR2DL5A /// KIR2DL5B /// KIR2DS1 /// KIR2DS2 /// KIR2DS3 /// KIR2DS4 /// KIR3DL3 /// KIR3DL3 /// KIR3DS1 (11738374_at) / Fold change /veh KIR2DL2 /// KIR2DL4 /// KIR2DL5A /// KIR2DL5B /// KIR2DS1 /// KIR2DS2 /// KIR2DS3 /// KIR2DS4 /// KIR3DL3 /// KIR3DL3 /// KIR3DS1 (11738374_at) / RFU C1QL1 (11718748_at) / Fold change /veh C1QL1 (11718748_at) / RFU TMPRSS4 (11747572_a_at) / Fold change /veh TMPRSS4 (11747572_a_at) / RFU HAMP (11756126_x_at) / Fold change /veh HAMP (11756126_x_at) / RFU RNFT2 (11725882_a_at) / Fold change /veh RNFT2 (11725882_a_at) / RFU NR4A2 (11747474_a_at) / Fold change /veh NR4A2 (11747474_a_at) / RFU ABCC12 (11746883_a_at) / Fold change /veh ABCC12 (11746883_a_at) / RFU TMEM136 (11760407_x_at) / Fold change /veh TMEM136 (11760407_x_at) / RFU CLDN22 /// WWC2 (11732394_at) / Fold change /veh CLDN22 /// WWC2 (11732394_at) / RFU HLA-DPB1 (11760878_x_at) / Fold change /veh HLA-DPB1 (11760878_x_at) / RFU SPINT1 (11716480_a_at) / Fold change /veh SPINT1 (11716480_a_at) / RFU GAP43 (11754022_s_at) / Fold change /veh GAP43 (11754022_s_at) / RFU A4GNT (11735810_at) / Fold change /veh A4GNT (11735810_at) / RFU PRB3 (11715151_x_at) / Fold change /veh PRB3 (11715151_x_at) / RFU TUBB4B (11761932_at) / Fold change /veh TUBB4B (11761932_at) / RFU CAPN14 (11732068_a_at) / Fold change /veh CAPN14 (11732068_a_at) / RFU TMCC2 (11721928_a_at) / Fold change /veh TMCC2 (11721928_a_at) / RFU IRGQ (11745062_a_at) / Fold change /veh IRGQ (11745062_a_at) / RFU FAM174B (11720279_a_at) / Fold change /veh FAM174B (11720279_a_at) / RFU TMPRSS4 (11748680_a_at) / Fold change /veh TMPRSS4 (11748680_a_at) / RFU FAM212B (11763350_a_at) / Fold change /veh FAM212B (11763350_a_at) / RFU PLEKHG5 (11743358_a_at) / Fold change /veh PLEKHG5 (11743358_a_at) / RFU ZSCAN30 (11745921_a_at) / Fold change /veh ZSCAN30 (11745921_a_at) / RFU CMKLR1 (11741424_a_at) / Fold change /veh CMKLR1 (11741424_a_at) / RFU LOC101060620 /// MAPK8IP1 (11723275_at) / Fold change /veh LOC101060620 /// MAPK8IP1 (11723275_at) / RFU SPTSSB (11747773_x_at) / Fold change /veh SPTSSB (11747773_x_at) / RFU PRSS12 (11739890_at) / Fold change /veh PRSS12 (11739890_at) / RFU BIN1 (11741810_x_at) / Fold change /veh BIN1 (11741810_x_at) / RFU WNT11 (11732464_a_at) / Fold change /veh WNT11 (11732464_a_at) / RFU C10orf10 (11716521_a_at) / Fold change /veh C10orf10 (11716521_a_at) / RFU C5orf56 (11738089_at) / Fold change /veh C5orf56 (11738089_at) / RFU CYB561 (11721691_x_at) / Fold change /veh CYB561 (11721691_x_at) / RFU ANKRD19P (11752326_a_at) / Fold change /veh ANKRD19P (11752326_a_at) / RFU OR2T12 /// OR2T33 /// OR2T8 (11738714_s_at) / Fold change /veh OR2T12 /// OR2T33 /// OR2T8 (11738714_s_at) / RFU VCAN (11748164_a_at) / Fold change /veh VCAN (11748164_a_at) / RFU JSRP1 (11732532_at) / Fold change /veh JSRP1 (11732532_at) / RFU KRTAP10-11 (11738290_x_at) / Fold change /veh KRTAP10-11 (11738290_x_at) / RFU MYO3A (11730013_a_at) / Fold change /veh MYO3A (11730013_a_at) / RFU EBF3 (11725865_a_at) / Fold change /veh EBF3 (11725865_a_at) / RFU CAMK2N1 (11719241_x_at) / Fold change /veh CAMK2N1 (11719241_x_at) / RFU C5orf56 (11738088_a_at) / Fold change /veh C5orf56 (11738088_a_at) / RFU OLFML3 (11715873_a_at) / Fold change /veh OLFML3 (11715873_a_at) / RFU LOC100653217 /// NTM (11731650_a_at) / Fold change /veh LOC100653217 /// NTM (11731650_a_at) / RFU MAPK11 (11762145_a_at) / Fold change /veh MAPK11 (11762145_a_at) / RFU FIZ1 (11724087_x_at) / Fold change /veh FIZ1 (11724087_x_at) / RFU OASL (11726364_x_at) / Fold change /veh OASL (11726364_x_at) / RFU SOX15 (11748057_x_at) / Fold change /veh SOX15 (11748057_x_at) / RFU CD79A (11719716_a_at) / Fold change /veh CD79A (11719716_a_at) / RFU HIST1H1D (11736915_at) / Fold change /veh HIST1H1D (11736915_at) / RFU CASKIN2 (11723855_a_at) / Fold change /veh CASKIN2 (11723855_a_at) / RFU LOC730098 (11760151_x_at) / Fold change /veh LOC730098 (11760151_x_at) / RFU OR4N2 (11742367_at) / Fold change /veh OR4N2 (11742367_at) / RFU PRRT2 (11749266_a_at) / Fold change /veh PRRT2 (11749266_a_at) / RFU SNX32 (11753110_a_at) / Fold change /veh SNX32 (11753110_a_at) / RFU CDHR5 (11726645_a_at) / Fold change /veh CDHR5 (11726645_a_at) / RFU RCAN1 (11760418_a_at) / Fold change /veh RCAN1 (11760418_a_at) / RFU FAM167A (11723789_a_at) / Fold change /veh FAM167A (11723789_a_at) / RFU FAM26E (11764081_at) / Fold change /veh FAM26E (11764081_at) / RFU ISYNA1 (11749810_s_at) / Fold change /veh ISYNA1 (11749810_s_at) / RFU ACY1 (11761880_at) / Fold change /veh ACY1 (11761880_at) / RFU 11764098_at / Fold change /veh 11764098_at / RFU SAMD14 (11745864_x_at) / Fold change /veh SAMD14 (11745864_x_at) / RFU NPB (11741838_a_at) / Fold change /veh NPB (11741838_a_at) / RFU TMPRSS6 (11731388_a_at) / Fold change /veh TMPRSS6 (11731388_a_at) / RFU KRTAP10-2 (11738614_at) / Fold change /veh KRTAP10-2 (11738614_at) / RFU ARHGAP8 /// PRR5-ARHGAP8 (11727945_x_at) / Fold change /veh ARHGAP8 /// PRR5-ARHGAP8 (11727945_x_at) / RFU KRTAP5-7 /// NADSYN1 (11734609_at) / Fold change /veh KRTAP5-7 /// NADSYN1 (11734609_at) / RFU RASL12 (11751679_a_at) / Fold change /veh RASL12 (11751679_a_at) / RFU CDKN2B (11736163_a_at) / Fold change /veh CDKN2B (11736163_a_at) / RFU PRF1 (11729649_at) / Fold change /veh PRF1 (11729649_at) / RFU, ZNF638 /// ZNF638-IT1 / Fold change vs veh, ZNF638 /// ZNF638-IT1 / RFU, PANK3 / Fold change vs veh, PANK3 / RFU, SH3YL1 / Fold change vs veh, SH3YL1 / RFU, ZEB2 / Fold change vs veh, ZEB2 / RFU, NRIP1 / Fold change vs veh, NRIP1 / RFU, PTTG1IP / Fold change vs veh, PTTG1IP / RFU, CAPN2 / Fold change vs veh, CAPN2 / RFU, MED14 / Fold change vs veh, MED14 / RFU, SNORA58 / Fold change vs veh, SNORA58 / RFU, C1orf63 / Fold change vs veh, C1orf63 / RFU, LRRFIP1 / Fold change vs veh, LRRFIP1 / RFU, NDUFAF7 / Fold change vs veh, NDUFAF7 / RFU, SLC12A2 / Fold change vs veh, SLC12A2 / RFU, IBTK / Fold change vs veh, IBTK / RFU, ESF1 / Fold change vs veh, ESF1 / Fold change vs veh, TMEM50B / RFU, TAOK1 / Fold change vs veh, TAOK1 / RFU, ACBD3 / Fold change vs veh, ACBD3 / RFU, TMA16 / Fold change vs veh, TMA16 / RFU, RWDD3 / Fold change vs veh, RWDD3 / RFU, BCAT1 / Fold change vs veh, BCAT1 / RFU, EDEM3 / Fold change vs veh, EDEM3 / RFU, TMEM33 / Fold change vs veh, TMEM33 / RFU, WDR75 / Fold change vs veh, WDR75 / RFU, AHCTF1 / Fold change vs veh, AHCTF1 / RFU, TFRC / Fold change vs veh, TFRC / RFU, ZDHHC17 / Fold change vs veh, ZDHHC17 / RFU, NOM1 / Fold change vs veh, NOM1 / RFU, ARL8B / Fold change vs veh, ARL8B / RFU, ZBTB11 / Fold change vs veh, ZBTB11 / RFU, TAMM41 / Fold change vs veh, TAMM41 / RFU, KIAA1704 /// LOC100996395 / Fold change vs veh, KIAA1704 /// LOC100996395 / RFU, ING1 / Fold change vs veh, ING1 / RFU, TRMT61B / Fold change vs veh, TRMT61B / RFU, FUBP3 / Fold change vs veh, FUBP3 / RFU, TP53 / Fold change vs veh, TP53 / RFU, TNKS2 / Fold change vs veh, TNKS2 / RFU, ZFP14 / Fold change vs veh, ZFP14 / RFU, ACTR2 / Fold change vs veh, ACTR2 / RFU, PPP3R1 / Fold change vs veh, PPP3R1 / RFU, PIK3R1 / Fold change vs veh, PIK3R1 / RFU, HNRNPA1 / Fold change vs veh, HNRNPA1 / RFU, RNF170 / Fold change vs veh, RNF170 / RFU, ZNF28 / Fold change vs veh, ZNF28 / RFU, RNGTT / Fold change vs veh, RNGTT / RFU, OGT / Fold change vs veh, OGT / RFU, BRD1 / Fold change vs veh, BRD1 / RFU, MARS / Fold change vs veh, MARS / RFU, ZNF655 / Fold change vs veh, ZNF655 / RFU, FAHD1 / Fold change vs veh, FAHD1 / RFU, BDP1 / Fold change vs veh, BDP1 / RFU, LRRCC1 / Fold change vs veh, LRRCC1 / RFU, ARID1A / Fold change vs veh, ARID1A / RFU, ZNF146 / Fold change vs veh, ZNF146 / RFU, ZNF330 / Fold change vs veh, ZNF330 / RFU, GPN3 / Fold change vs veh, GPN3 / RFU, C9orf123 / Fold change vs veh, C9orf123 / RFU, N4BP2L2 / Fold change vs veh, N4BP2L2 / RFU, ARFIP1 / Fold change vs veh, ARFIP1 / RFU, FAM179B / Fold change vs veh, FAM179B / RFU, BCL10 / Fold change vs veh, BCL10 / RFU, UHRF1BP1L / Fold change vs veh, UHRF1BP1L / RFU, BET1 / Fold change vs veh, BET1 / RFU, CNOT2 / Fold change vs veh, CNOT2 / RFU, ZNF268 / Fold change vs veh, ZNF268 / Fold change vs veh, ZNF507 / RFU, DGCR2 / Fold change vs veh, DGCR2 / RFU, WDSUB1 / Fold change vs veh, WDSUB1 / Fold change vs veh, HSP90B1 /// MIR3652 / RFU, ADSS / Fold change vs veh, ADSS / RFU, GK / Fold change vs veh, GK / RFU, ZNF148 / Fold change vs veh, ZNF148 / RFU, TAF9 / Fold change vs veh, TAF9 / RFU, SLC1A5 / Fold change vs veh, SLC1A5 / RFU, SLMO2 / Fold change vs veh, SLMO2 / RFU, ABCC4 / Fold change vs veh, ABCC4 / RFU, LOC101060439 /// RAP1B / Fold change vs veh, LOC101060439 /// RAP1B / RFU, RFX7 / Fold change vs veh, RFX7 / RFU, GTPBP10 / Fold change vs veh, GTPBP10 / RFU, CNEP1R1 / Fold change vs veh, CNEP1R1 / RFU, BIVM-ERCC5 /// ERCC5 / Fold change vs veh, BIVM-ERCC5 /// ERCC5 / RFU, ILF3 / Fold change vs veh, ILF3 / RFU 11762660_at / Fold change /veh 11762660_at / RFU VCAN (11757783_s_at) / Fold change /veh VCAN (11757783_s_at) / RFU DDX43 (11728927_at) / Fold change /veh DDX43 (11728927_at) / RFU KRT8 (11758188_x_at) / Fold change /veh KRT8 (11758188_x_at) / RFU NKD1 (11759106_at) / Fold change /veh NKD1 (11759106_at) / RFU SRD5A1 (11742802_a_at) / Fold change /veh SRD5A1 (11742802_a_at) / RFU TPSAB1 /// TPSB2 (11721975_s_at) / Fold change /veh TPSAB1 /// TPSB2 (11721975_s_at) / RFU GSTM3 (11746129_a_at) / Fold change /veh GSTM3 (11746129_a_at) / RFU IL23R (11737362_x_at) / Fold change /veh IL23R (11737362_x_at) / RFU TMEM51 (11727254_a_at) / Fold change /veh TMEM51 (11727254_a_at) / RFU PIWIL2 (11732686_x_at) / Fold change /veh PIWIL2 (11732686_x_at) / RFU ORM1 (11744905_x_at) / Fold change /veh ORM1 (11744905_x_at) / RFU CCDC152 (11743942_at) / Fold change /veh CCDC152 (11743942_at) / RFU ECM1 (11717891_a_at) / Fold change /veh ECM1 (11717891_a_at) / RFU IL23R (11748794_a_at) / Fold change /veh IL23R (11748794_a_at) / RFU TNFAIP8L3 (11732012_x_at) / Fold change /veh TNFAIP8L3 (11732012_x_at) / RFU MBOAT4 (11741988_at) / Fold change /veh MBOAT4 (11741988_at) / RFU 11764193_at / Fold change /veh 11764193_at / RFU TMEM53 (11763286_at) / Fold change /veh TMEM53 (11763286_at) / RFU MAGEB2 (11727129_at) / Fold change /veh MAGEB2 (11727129_at) / RFU TMEM200A (11744735_a_at) / Fold change /veh TMEM200A (11744735_a_at) / RFU CCDC152 (11751479_a_at) / Fold change /veh CCDC152 (11751479_a_at) / RFU FAM211A (11726209_a_at) / Fold change /veh FAM211A (11726209_a_at) / RFU RGS16 (11746705_a_at) / Fold change /veh RGS16 (11746705_a_at) / RFU VCAN (11755009_s_at) / Fold change /veh VCAN (11755009_s_at) / RFU RHOB (11743442_s_at) / Fold change /veh RHOB (11743442_s_at) / RFU RGS16 (11720943_a_at) / Fold change /veh RGS16 (11720943_a_at) / RFU RGS16 (11720944_at) / Fold change /veh RGS16 (11720944_at) / RFU, VPS4B / Fold change vs veh, VPS4B / RFU, CREB1 / Fold change vs veh, CREB1 / RFU, DNAJC13 / Fold change vs veh, DNAJC13 / RFU, GNAQ / Fold change vs veh, GNAQ / RFU, CDK5R1 / Fold change vs veh, CDK5R1 / RFU, ZRANB3 / Fold change vs veh, ZRANB3 / RFU, CUL4A / Fold change vs veh, CUL4A / RFU, CCNY / Fold change vs veh, CCNY / RFU, UFL1 / Fold change vs veh, UFL1 / RFU, COG3 / Fold change vs veh, COG3 / RFU, DIAPH2 / Fold change vs veh, DIAPH2 / RFU, SKA2 / Fold change vs veh, SKA2 / RFU, AFF3 / Fold change vs veh, AFF3 / RFU, LMF1 / Fold change vs veh, LMF1 / RFU, IPO11 / Fold change vs veh, IPO11 / RFU, DFFB / Fold change vs veh, DFFB / RFU, FOXP1 / Fold change vs veh, FOXP1 / RFU, CARD8 / Fold change vs veh, CARD8 / RFU, STRN3 / Fold change vs veh, STRN3 / RFU, ADK / Fold change vs veh, ADK / RFU, RASSF2 / Fold change vs veh, RASSF2 / RFU, WIPF1 / Fold change vs veh, WIPF1 / RFU, LARP1B / Fold change vs veh, LARP1B / RFU, RASA1 / Fold change vs veh, RASA1 / RFU, RB1 / Fold change vs veh, RB1 / RFU, PPFIA1 / Fold change vs veh, PPFIA1 / RFU, MAT2A / Fold change vs veh, MAT2A / RFU, CCT5 / Fold change vs veh, CCT5 / RFU, WDR92 / Fold change vs veh, WDR92 / RFU, CUX1 / Fold change vs veh, CUX1 / RFU, TTC7A / Fold change vs veh, TTC7A / RFU, TMEM135 / Fold change vs veh, TMEM135 / RFU, DEPTOR / Fold change vs veh, DEPTOR / RFU, CPM / Fold change vs veh, CPM / RFU, DNAJB6 / Fold change vs veh, DNAJB6 / RFU, CACNA2D3 / Fold change vs veh, CACNA2D3 / RFU, DTX4 / Fold change vs veh, DTX4 / RFU, TFCP2 / Fold change vs veh, TFCP2 / RFU, GMCL1 /// GMCL1P1 / Fold change vs veh, GMCL1 /// GMCL1P1 / RFU, AEBP2 / Fold change vs veh, AEBP2 / RFU, SNHG1 /// SNORD22 /// SNORD25 /// SNORD26 /// SNORD27 /// SNORD28 /// SNORD29 /// SNORD31 / Fold change vs veh, SNHG1 /// SNORD22 /// SNORD25 /// SNORD26 /// SNORD27 /// SNORD28 /// SNORD29 /// SNORD31 / Fold change (Aza/veh), C12orf56 (ProbeSet 11735607_a_at) / Fold change (ACY-1035/veh), C12orf56 (ProbeSet 11735607_a_at) / Fold change (Aza/veh), FGFR1OP (ProbeSet 11751329_s_at) / Fold change (ACY-1035/veh), FGFR1OP (ProbeSet 11751329_s_at) / Fold change (Aza/veh), VPS36 (ProbeSet 11739960_a_at) / Fold change (ACY-1035/veh), VPS36 (ProbeSet 11739960_a_at) / RFU SYPL1 (11715823_x_at) / Fold change /veh SYPL1 (11715823_x_at) / RFU IGFBP7 (11715501_s_at) / Fold change /veh IGFBP7 (11715501_s_at) / RFU REEP3 (11722064_at) / Fold change /veh REEP3 (11722064_at) / RFU IGLL1 (11728026_x_at) / Fold change /veh IGLL1 (11728026_x_at): dose or concentration left out as unconfirmed
Conditions: MV-4-11 cells, 48 hours

`Nc1ncn([C@@H]2O[C@H](CO)[C@@H](O)[C@H]2O)c(=O)n1` [azacitidine] was tested, and the “Fold change /veh FAM211A (11726209_a_at)” value was 1.26.

— PMC5218480 (PLoS ONE, 2017)
